Results reported in publication PMC7728754, “MRI-based molecular imaging of epicardium-derived stromal cells (EpiSC) by peptide-mediated active targeting” (Scientific Reports, 2020).
Entries after “also recorded” stand apart in the source; their conditions may differ.

Legend:
cultured EpiSCs [1] = experiment: Flow cytometry binding of FAM-labelled EPs to cultured EpiSCs; type: cell-based, rat; conditions: 5 µg/ml FAM-labelled peptide, up to 120 min, 37 °C, n = 5
Procedure: EpiSCs were detached from the cell culture flask with PBS-EDTA (5 mM) and resuspended in DMEM at a concentration of 0.5 × 10^6 cells/ml. Cell suspensions were incubated with 5 µg/ml of EP1, EP2, EP3, EP7 and EP9 for up to 120 min at 37 °C. After 10, 20, 40, 80 and 120 min, samples were transferred into tubes containing ice-cold MACS buffer (PBS, 2% FCS, 1 mM EDTA) to stop the reaction. Cells were centrifuged for 5 min at 500 × g and 4 °C, washed twice and finally suspended in MACS buffer with DAPI (4′,6-Diamidino-2-phenylindole dihydrochloride; 1 µg/ml) to label dead cells. Flow cytometric analysis was performed on a BD FACS Canto II (BD Biosciences, Heidelberg, Germany).

EpiSCs = experiment: Surface plasmon resonance, EpiSCs over immobilized EP9; type: binding, rat; conditions: SPR, 25 °C, PBS
Procedure: (§1) To analyse the interaction kinetics between peptide EP9 and EpiSCs, we used a BIAcore X100 system equipped with a CM5 sensor chips (GE Healthcare GmbH, Solingen, Germany). EP9 peptide was immobilized to the surface of the CM5 chip (600 µg/ml; 30 µl/min) using a thiol coupling chemistry (GE Healthcare GmbH). Presence of a free SH group at the C-terminal of EP9 peptide enabled us to efficiently immobilize it through a thiol coupling procedure. Afterward, EpiSCs and THP-1 monocytes (ATCC: TIB-202; 10,000 cells/µl) were injected over the sensor chip to monitor the association between immobilized EP9 peptide and the cells. After injection of the cells, dissociation phase was monitored by introduction of buffer for a period of 300 s. In another experimental strategy, increasing numbers of EpiSCs (200, 400 and 800 × 10^3) were flushed over the immobilized peptide EP9 with a flow rate of 30 µl/min and dissociation was measured for an identical period of time. Finally, to block the EP9 binding sites, EpiSCs were pre-incubated for 30 min with 5 µg of EP9 before injection into the BIAcore system and subjected to the same procedure as described above. All SPR experiments were carried out at 25 °C in PBS.

THP-1 monocytes = experiment: Surface plasmon resonance, THP-1 monocytes over immobilized EP9; type: binding, human; conditions: SPR, CM5 chip, 30 µl/min, 25 °C, PBS, negative control cells
Procedure: as §1

[2] = system: primary human CD14+ monocytes; experiment: Flow cytometry binding of EP9 to primary human monocytes; type: cell-based; conditions: 1.9 µg EP9 in 600 µl cell suspension, up to 45 min, 37 °C, n = 4 (Fig. S3)
Procedure: Blood was withdrawn from healthy human volunteers by venous puncture and 10 ml of whole blood were mixed with 10 ml of PBS and gently laid on top of Histopaque-1077 (Sigma-Aldrich Chemie GmbH). After density centrifugation, the PBMC layer was diluted 1:1 with PBS and a centrifugation step was performed. The cell pellet was subjected to erythrocyte lysis using hypotonic buffer for 10 min at 4 °C. After centrifugation, the cells were resuspended in 8.5 ml DMEM. The cell suspension (600 µl) was incubated with 1.9 µg of EP9 for 45 min, at 37 °C. After 5, 15 and 45 min, samples were transferred into ice cold MACS buffer to stop the reaction and centrifuged for 5 min at 500 × g. Cells were washed with MACS buffer, resuspended in CD14-PE/Cy7 (PE/Cy7 anti-human CD14, Clone 63D3, BioLegend, San Diego, USA) antibody solution and incubated for 30 min at 4 °C. Flow cytometric analysis was performed after two washing steps and suspension in MACS buffer with DAPI (1 µg/ml) using a BD FACS Canto II.

EpiSC and THP-1 cells = experiment: Cytotoxicity by DAPI flow cytometry; type: cell-based; conditions: 200 µl of cells + 5 µl EP9PFCs or 1.9 µg EP9, up to 120 min, 37 °C, n = 3
Procedure: EpiSC and THP-1 cells were incubated with EP9 peptide or ^EP9PFCs (200 µl of cells + 5 µl ^EP9PFCs or 1.9 µg EP9) over a period of 120 min at 37 °C. Samples were withdrawn after 0 min, 15 min, 30 min, 60 min and 120 min and analyzed by flow cytometry. Cells were stained with DAPI (1 µg/ml) to label dead cells.

cultured EpiSCs [3] = experiment: Impact of storage on EP9/EP9PFC targeting efficacy; type: cell-based, rat; conditions: stored in phosphate buffer at 4 °C for 24 h, then 30 min at 37 °C on cultured EpiSCs, flow cytometry, n = 3
Procedure: EP9 and ^EP9PFCs were stored in phosphate buffer at 4 °C for 6 h and 24 h. Subsequently EP9 and ^EP9PFCs were incubated on cultured EpiSCs for 30 min at 37 °C. Cells were washed twice with MACS buffer and then analyzed by flow cytometry.

## ATKTIAP [EP2]
Cultured EpiSCs [1]
  Binding to cultured EpiSCs: strong binding

## KLMLPRP [EP9]
Cultured EpiSCs [1]
  Binding to cultured EpiSCs: strong binding; also recorded: best binding properties
EpiSCs; CM5 chip, thiol coupling, 30 µl/min
  Association of EpiSCs to immobilized peptide: rapidly associated
EpiSCs; EpiSCs over thiol-immobilized EP9, 30 µl/min
  Dissociation rate: 0.005 s⁻¹
THP-1 monocytes
  Association of THP-1 monocytes to immobilized peptide: only minor association
[2]
  Binding to primary monocytes: not detectable
EpiSC and THP-1 cells
  Acute cytotoxic effects: did not find evidence for acute cytotoxic effects
Cultured EpiSCs [3]
  Cellular labelling of EpiSCs after storage: severely reduced

## QSHALMA [EP7]
Cultured EpiSCs [1]
  Binding to cultured EpiSCs: strong binding

## SEPIVPL [EP1]
Cultured EpiSCs [1]
  Binding to cultured EpiSCs: strong binding

## THVYRDE [EP3]
Cultured EpiSCs [1]
  Binding to cultured EpiSCs: strong binding
